# Reference: patent US20040229844A1, “Method of treating atherosclerosis, dyslipidemias and related conditions” (priority 2003, published 2004)
# Entries after “also recorded” stand apart in the source; their conditions may differ.
# Tests used:
# [1] = test system: prostaglandin D2-induced vasodilation; assay: Prostaglandin D2-induced vasodilation in mice; format: in vivo, mouse; conditions: FIG. 1
# Description: Compound D suppressed PGD-2 induced vasodilation in the mouse (FIG. 1). The DP antagonists tested suppressed nicotinic acid-induced vasodilation in the mouse; data for selected compounds is provided in FIGS. 2 and 3.
# [2] = test system: nicotinic acid-induced vasodilation; assay: Nicotinic acid-induced vasodilation in mice (ear perfusion, laser Doppler); format: in vivo, mouse; conditions: male C57BL/6 mice, DP antagonist ~40 mpk i.p., nicotinic acid ~100 mpk s.c., FIGS. 2 and 3
# Experimental: Blood flow in the mouse ear (a measure of vasodilation, a prominent component of flushing in humans) is measured after administration of nicotinic acid to mice that had been pretreated with vehicle (as a control) or a DP antagonist. Specifically, male C57BL/6 mice (˜25 g) were used in the study. Five mice were evaluated in each test group. Nembutal was diluted with water to a final concentration of 5 mg/ml and injected 0.3 ml/mouse intraperitoneally. DP antagonists were dissolved in 5% hydroxypropyl β-cyclodextrin at a final concentration of 5 mg/mi and the compounds were administered intraperitoneally at a volume of 0.2 mi/mouse (˜40 mpk). Nicotinic acid was dissolved in 5% hydroxypropyl β-cyclodextrin at a final concentration of 12.5 mg/mi. […]
# Perfusion of mouse ear skin was monitored with a laser Doppler perfusion imager (PeriScan PIM II, Perimed, Sweden) every 30 seconds for 15 minutes starting 5 minutes prior to nicotinic acid administration. Percent changes in mean perfusion over the 10 minute period after vehicle or nicotinic acid administration were calculated and a graph of percent change in mean perfusion vs. time was generated for each animal. The area under the curve (AUC) of mean perfusion (% Δ×min) was then calculated from each graph and the results are expressed in mean AUC±SEM for each group.
compound,measurement,setting,value
CC(O)c1cc(S(C)(=O)=O)cc2c3c(n(Cc4ccc(Cl)cc4)c12)[C@@H](CC(=O)O)CC3 (some centres unmarked) [Compound D],inhibition of prostaglandin D2-induced vasodilation,[1],inhibits; also recorded: suppressed
same,inhibition of nicotinic acid-induced vasodilation,[2],inhibits
